# Assay results published in patent publication US4296105A, “Derivatives of doxorubicine, their preparation and use” (Institut International de Pathologie Cellulaire et …, priority 1978, dated 1981).
# What was measured:
# leukemia L1210 = experiment: Antitumoral activity in DBA2 mice grafted subcutaneously with leukemia L1210 cells; assay type: in vivo
# Protocol: The tests were made with mice weighing 20 to 22 g grafted subcutaneously with 10^6 cells of leukemia L1210 and treated with daily doses between 5 and 60 mg/kg i.v.
# At equitoxic dose, doxorubicine induces 78% ILS, 16% of surviving animals at long term and an average tumoral volume of 24 mm^3 on day 12.
# [1] = Acute toxicity in mice (50% lethal dose, i.v. injection 2 consecutive days); assay type: in vivo
# [2] = DBA2 mice 20-22 g, 10^6 L1210 cells s.c., i.v. days 1 and 2, 48 mg/kg a day
# [3] = DBA2 mice, L1210 s.c., equitoxic dose
compound,measurement,setting,value
COc1cccc2c1C(=O)c1c(O)c3c(c(O)c1C2=O)C[C@@](O)(C(=O)CO)C[C@@H]3O[C@H]1C[C@H](NC(=O)[C@@H](N)CC(C)C)[C@H](O)[C@H](C)O1 [N-(L-leucyl)doxorubicine],increase in life span (ILS),leukemia L1210; [2],131%
same,surviving animals at long term,leukemia L1210; [2],33%
same,average tumoral volume on day 12,leukemia L1210; [2],0.01 mm^3
same,LD50,"[1]; mouse, in vivo, iv",~67 mg/kg
same,LD50 relative to doxorubicine (times more than for doxorubicine),[1]; versus doxorubicine,6 times
COc1cccc2c1C(=O)c1c(O)c3c(c(O)c1C2=O)C[C@@](O)(C(=O)CO)C[C@@H]3O[C@H]1C[C@H](N)[C@H](O)[C@H](C)O1 [doxorubicine],increase in life span (ILS),leukemia L1210; [3],78%
same,surviving animals at long term,leukemia L1210; [3],16%
same,average tumoral volume on day 12,leukemia L1210; [3],24 mm^3
